In ChEMBL document CHEMBL1137117, “Cinnamic acid esters as potent inhibitors of fungal 17beta-hydroxysteroid dehydrogenase--a model enzyme of the short-chain dehydrogenase/reductase superfamily” (Bioorg Med Chem Lett, 2004):

How the values were obtained:
Design in all cases: species or system Curvularia lunata
[1] = target: T1, 17-beta-hydroxysteroid-dehydrogenase (Cochliobolus lunatus, UniProt O93874); test: Inhibitory activity against 17 beta-hydroxysteroid dehydrogenase catalysed reduction reaction
T1 sequence (O93874 whole entry): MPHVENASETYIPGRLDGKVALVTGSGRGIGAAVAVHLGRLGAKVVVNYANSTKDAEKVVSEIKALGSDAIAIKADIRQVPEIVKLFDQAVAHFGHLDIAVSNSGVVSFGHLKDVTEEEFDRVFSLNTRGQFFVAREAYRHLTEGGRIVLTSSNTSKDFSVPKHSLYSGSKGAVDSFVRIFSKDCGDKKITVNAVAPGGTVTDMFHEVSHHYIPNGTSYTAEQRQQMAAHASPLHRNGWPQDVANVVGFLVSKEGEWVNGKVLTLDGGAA

[2] = target: T1, 17-beta-hydroxysteroid-dehydrogenase; test: Inhibitory activity against 17 beta-hydroxysteroid dehydrogenase catalysed oxidation reaction
[3] = target: T1, 17-beta-hydroxysteroid-dehydrogenase; test: Inhibitory activity against 17 beta-hydroxysteroid dehydrogenase catalysed oxidation reaction; NI=no inhibition
[4] = target: T1, 17-beta-hydroxysteroid-dehydrogenase; test: Inhibitory activity against 17 beta-hydroxysteroid dehydrogenase catalysed reduction reaction; NI=no inhibition

Row | IC50 ([1]; read-out: IC50) [µM] | IC50 [2] [µM] | IC50 [3] | IC50 [4] | IC50 [1] | SMILES
1 | 8 | 2.7 | – | – | – | O=C(OCc1ccccc1)c1cc2ccccc2oc1=O
2 | > 200 | > 200 | – | – | – | CC(=O)Nc1ccc(OC(=O)/C=C/c2ccccc2)cc1
3 | – | – | Not Active | Not Active | – | COc1cc(COC(=O)c2cc3ccccc3oc2=O)cc(OC)c1OC
4 | – | 13 | – | Not Active | – | N#Cc1ccc(OC(=O)/C=C/c2ccccc2)cc1
5 | – | 130 | – | Not Active | – | O=C(/C=C/c1ccccc1)OCc1cccc(Oc2ccccc2)c1
6 | – | 14 | – | Not Active | – | COc1cc(COC(=O)/C=C/c2ccccc2)cc(OC)c1OC
7 | – | 10 | – | Not Active | – | O=C(/C=C/c1ccccc1)OCN1C(=O)c2ccccc2C1=O
8 | – | 135 | – | – | No inhibition | COc1cccc(OC(=O)/C=C/c2ccccc2)c1
9 | – | 10 | – | – | – | O=C(/C=C/c1ccccc1)Oc1cccc2ccccc12
10 | – | – | Not Active | Not Active | – | O=C(OCN1C(=O)c2ccccc2C1=O)c1cc2ccccc2oc1=O
11 | > 200 | > 200 | – | – | – | CCCCCCCC(=O)Nc1ccc(OC(=O)/C=C/c2ccccc2)cc1
12 | 90 | 5 | – | – | – | O=C(/C=C/c1ccccc1)OCCN1C(=O)c2ccccc2C1=O
13 | – | – | Not Active | Not Active | – | O=C(OCCN1C(=O)c2ccccc2C1=O)c1cc2ccccc2oc1=O
14 | – | – | Not Active | Not Active | – | O=C(/C=C/c1ccccc1)OC1CCCCC1
15 | 7 | 0.7 | – | – | – | O=C(/C=C/c1ccccc1)OCc1ccccc1 [BENZYL CINNAMATE]
16 | > 200 | 26 | – | – | – | O=C(/C=C/c1ccccc1)Oc1ccccc1 [PHENYL CINNAMATE]
